Assay results reported in patent US9663525B2, “Pyrazolopyrimidinyl inhibitors of ubiquitin-activating enzyme” (Millennium Pharmaceuticals, Inc., priority 2012, dated 2017).

target: recombinant human UAE (Homo sapiens (Human), UniProt P22314); assay: Ubiquitin Activating Enzyme (UAE) HTRF assay, human UAE; settings: not given
Sequence (P22314 whole entry): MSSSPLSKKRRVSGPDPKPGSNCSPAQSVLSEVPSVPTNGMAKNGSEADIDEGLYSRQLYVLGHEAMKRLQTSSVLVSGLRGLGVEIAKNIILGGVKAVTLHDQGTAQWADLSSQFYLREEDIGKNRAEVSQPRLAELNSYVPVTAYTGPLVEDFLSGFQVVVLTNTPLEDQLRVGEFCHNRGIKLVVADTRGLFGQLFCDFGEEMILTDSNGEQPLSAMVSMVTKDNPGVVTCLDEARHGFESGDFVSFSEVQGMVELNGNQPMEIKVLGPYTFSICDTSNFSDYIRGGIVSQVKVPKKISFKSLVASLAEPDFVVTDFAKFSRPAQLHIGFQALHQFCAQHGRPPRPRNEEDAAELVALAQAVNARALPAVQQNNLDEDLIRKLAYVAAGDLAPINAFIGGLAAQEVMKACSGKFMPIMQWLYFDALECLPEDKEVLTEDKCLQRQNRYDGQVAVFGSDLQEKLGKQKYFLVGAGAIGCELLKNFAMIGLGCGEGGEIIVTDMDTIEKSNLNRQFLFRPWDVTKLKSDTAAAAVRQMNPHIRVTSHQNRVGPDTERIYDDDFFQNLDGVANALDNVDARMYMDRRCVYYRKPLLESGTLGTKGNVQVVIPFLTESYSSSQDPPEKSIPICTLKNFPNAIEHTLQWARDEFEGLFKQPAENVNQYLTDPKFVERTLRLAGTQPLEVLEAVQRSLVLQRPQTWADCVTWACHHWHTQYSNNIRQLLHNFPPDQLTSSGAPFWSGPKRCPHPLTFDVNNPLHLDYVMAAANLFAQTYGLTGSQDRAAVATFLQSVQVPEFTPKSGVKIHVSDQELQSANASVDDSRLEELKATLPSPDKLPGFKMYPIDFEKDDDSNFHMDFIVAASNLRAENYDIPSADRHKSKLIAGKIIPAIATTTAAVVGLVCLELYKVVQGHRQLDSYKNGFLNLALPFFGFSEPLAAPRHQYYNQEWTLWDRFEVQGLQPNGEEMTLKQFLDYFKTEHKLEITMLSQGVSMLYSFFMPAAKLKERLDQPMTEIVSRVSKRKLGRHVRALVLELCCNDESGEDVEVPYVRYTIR

IC50 [nM] | Structure (SMILES)
< 10 | Cc1sc(-c2ccccc2)nc1-c1cc2nccc(N[C@@H]3C[C@H](COS(N)(=O)=O)[C@@H](O)[C@H]3O)n2n1 (racemic) [Compound I-038, (rac)-[(1R,2R,3S,4R)-2,3-dihydroxy-4-{[2-(5-methyl-2-phenyl-1,3-thiazol-4-yl)pyrazolo[1,5-a]pyrimidin-7-yl]amino}cyclopentyl]methyl rel-sulfamate]
10 to 100 | NS(=O)(=O)OC[C@H]1C[C@@H](Nc2ccnc3cc(-c4cccc(C(=O)c5ccccc5)c4)nn23)[C@H](O)[C@@H]1O (racemic) [Compound I-073, (rac)-((1R,2R,3S,4R)-4-(2-(3-benzoylphenyl)pyrazolo[1,5-a]pyrimidin-7-ylamino)-2,3-dihydroxycyclopentyl)methyl rel-sulfamate]
< 10 | CC(CO)(CCl)c1cccc(-c2cc3nccc(N[C@@H]4C[C@H](COS(N)(=O)=O)[C@@H](O)[C@H]4O)n3n2)c1 (relative stereo) [Compound I-123, (rac)-{(1R,2R,3S,4R)-4-[(2-{3-[2-chloro-1-(hydroxymethyl)-1-methylethyl]phenyl}pyrazolo[1,5-a]pyrimidin-7-yl)amino]-2,3-dihydroxycyclopentyl}methyl rel-sulfamate]
10 to 100 | NS(=O)(=O)OC[C@H]1C[C@@H](Nc2ccnc3cc(-c4ccccc4SC(F)(F)F)nn23)[C@H](O)[C@@H]1O (racemic) [Compound I-079, (rac)-((1R,2R,3S,4R)-2,3-dihydroxy-4-(2-(2-(trifluoromethylthio)phenyl)pyrazolo[1,5-a]pyrimidin-7-ylamino)cyclopentyl)methyl rel-sulfamate]
< 10 | NS(=O)(=O)OC[C@H]1C[C@@H](Nc2ccnc3cc(-c4cccc5cnccc45)nn23)[C@H](O)[C@@H]1O (racemic) [Compound I-027, (rac)-((1R,2R,3S,4R)-2,3-dihydroxy-4-(2-(isoquinolin-5-yl)pyrazolo[1,5-a]pyrimidin-7-ylamino)cyclopentyl)methyl rel-sulfamate]
< 10 | COc1cc(F)ccc1-c1cc2nccc(N[C@@H]3C[C@H](COS(N)(=O)=O)[C@@H](O)[C@H]3O)n2n1 (racemic) [Compound I-070, (rac)-((1R,2R,3S,4R)-4-(2-(4-fluoro-2-methoxyphenyl)pyrazolo[1,5-a]pyrimidin-7-ylamino)-2,3-dihydroxycyclopentyl)methyl rel-sulfamate]
10 to 100 | NS(=O)(=O)OC[C@H]1C[C@@H](Nc2ccnc3cc(-c4ccc(C(F)(F)F)s4)nn23)[C@H](O)[C@@H]1O (racemic) [Compound I-060, (rac)-((1R,2R,3S,4R)-2,3-Dihydroxy-4-((2-(5-(trifluoromethyl)thiophen-2-yl)pyrazolo[1,5-a]pyrimidin-7-yl)amino)cyclopentyl)methyl rel-sulfamate]
100 to 1000 | COc1ccc(-c2cc3nc(Cl)cc(N[C@@H]4C[C@H](COS(N)(=O)=O)[C@@H](O)[C@H]4O)n3n2)cc1 (racemic) [Compound I-014, (rac)-[(1R,2R,3S,4R)-4-{[5-chloro-2-(4-methoxyphenyl)pyrazolo[1,5-a]-pyrimidin-7-yl]amino}-2,3-dihydroxycyclopentyl]methyl rel-sulfamate]
< 10 | NS(=O)(=O)OC[C@H]1C[C@@H](Nc2ccnc3cc(-c4c[nH]c5ccccc45)nn23)[C@H](O)[C@@H]1O (racemic) [Compound I-032, (rac)-[(1R,2R,3S,4R)-2,3-dihydroxy-4-{[2-(1H-indol-3-yl)pyrazolo[1,5-a]pyrimidin-7-yl]amino}cyclopentyl]methyl rel-sulfamate]

same assay, conditions: human UAE

IC50 [nM] | Structure (SMILES)
< 10 | NS(=O)(=O)OC[C@H]1C[C@@H](Nc2ccnc3cc(-c4ccc(OC(F)F)c5ccccc45)nn23)[C@H](O)[C@@H]1O [Compound I-112, (s.e.)-((1R,2R,3S,4R)-4-(2-(4-(difluoromethoxy)naphthalen-1-yl)pyrazolo[1,5-a]pyrimidin-7-ylamino)-2,3-dihydroxycyclopentyl)methyl sulfamate]
